As a reminder, the GI50 is the concentration that inhibits growth by half.

From ChEMBL document CHEMBL4414637, “Resorcinosides A and B, Glycosylated Alkylresorcinols from a Marine-Derived Strain of the Fungus Penicillium janthinellum” (2019) come the findings set out here.

Each structure is given as a SMILES string. Structures can show the parent of a compound that is named as a salt.

What all share (format): functional
The test system of one assay is PC-3. As to the kind of experiment: Cytotoxicity against human PC3 cells assessed as cell growth inhibition measured after 48 hrs by SRB assay. As to conditions: PC-3, 48 h. In general terms: The SRB assay estimates cell density from bound dye.
For a further assay, the system named is NUGC-3. Description: Cytotoxicity against human NUGC3 cells assessed as cell growth inhibition measured after 48 hrs by SRB assay. As to conditions: NUGC-3, 48 h.
For the next assay, the system named is NCI-H23. Description: Cytotoxicity against human NCI-H23 cells assessed as cell growth inhibition measured after 48 hrs by SRB assay. As to conditions: NCI-H23, 48 h.
The subject of another assay is MDA-MB-231. Description: Cytotoxicity against human MDA-MB-231 cells assessed as cell growth inhibition measured after 48 hrs by SRB assay. As to conditions: MDA-MB-231, 48 h.
A further assay deals with HCT-15. Description: Cytotoxicity against human HCT15 cells assessed as cell growth inhibition measured after 48 hrs by SRB assay. As to conditions: HCT-15, 48 h.
The next assay concerns ACHN. As to the kind of experiment: Cytotoxicity against human ACHN cells assessed as cell growth inhibition measured after 48 hrs by SRB assay.

Regarding `COc1cccc2c1C(=O)c1c(O)c3c(c(O)c1C2=O)C[C@@](O)(C(=O)CO)C[C@@H]3O[C@H]1C[C@H](N)[C@H](O)[C@H](C)O1` [DOXORUBICIN HYDROCHLORIDE], the GI50 came to 0.14 µM with PC-3; 0.15 µM in the assay on NUGC-3; 0.14 µM in the assay with NCI-H23; 0.15 µM in the assay on MDA-MB-231; 0.14 µM with HCT-15; 0.13 µM with ACHN.
On to `CC[C@H](C)[C@@H](CCCCCCC/C=C/C=C/CCc1cc(O)cc(O)c1Cc1c(O)cc(C)oc1=O)O[C@H]1O[C@H](CO)[C@@H](O)[C@H](O)[C@H]1O`, for which the GI50 with PC-3, with NUGC-3, in the assay on NCI-H23, in the assay with MDA-MB-231, with HCT-15 and in the assay with ACHN was above 50 µM in each case.
`CC[C@H](C)[C@@H](CCCCCCC/C=C/C=C/CCc1cc(O)cc(O)c1)O[C@H]1O[C@H](CO)[C@@H](O)[C@H](O)[C@H]1O`: the GI50 worked out at 21 µM in the assay on PC-3; 9.3 µM in the assay with NUGC-3; 24 µM in the assay on NCI-H23; 25 µM with MDA-MB-231; 19 µM in the assay with HCT-15; 31 µM in the assay with ACHN.
